{"source": "paper PMC6882899", "about": "(Scientific Reports, 2019)", "biological_target": "zebrafish WT α1BB-AR (Danio rerio, UniProt Q5U3D9)", "sequence (Q5U3D9 1-481)": "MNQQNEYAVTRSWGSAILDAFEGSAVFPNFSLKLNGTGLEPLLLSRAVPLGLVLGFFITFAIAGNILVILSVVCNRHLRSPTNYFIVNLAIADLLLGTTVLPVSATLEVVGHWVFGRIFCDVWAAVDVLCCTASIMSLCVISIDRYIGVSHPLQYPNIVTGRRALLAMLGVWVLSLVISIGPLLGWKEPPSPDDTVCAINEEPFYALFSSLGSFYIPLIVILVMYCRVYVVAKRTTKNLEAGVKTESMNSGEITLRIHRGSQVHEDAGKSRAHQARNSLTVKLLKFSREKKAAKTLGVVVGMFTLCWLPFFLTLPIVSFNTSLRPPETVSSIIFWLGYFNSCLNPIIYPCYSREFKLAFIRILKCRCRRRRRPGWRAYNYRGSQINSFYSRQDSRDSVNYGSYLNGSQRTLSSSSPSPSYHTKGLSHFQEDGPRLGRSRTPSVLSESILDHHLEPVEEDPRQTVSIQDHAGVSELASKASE", "test": "cell-based", "data": [{"smiles": "NC[C@H](O)c1ccc(O)c(O)c1", "note": "[NE, norepinephrine]", "values": [{"measurement": "EC50", "result": "407 ± 45", "unit": "nM"}]}]}
